Measured values as given in patent publication US9867795B2, “Nitrated lipids and methods of making and using thereof” (The UAB Research Foundation, priority 2004, dated 2018).

How the values were obtained:
[1] = test system: human vascular endothelial cells and macrophages; assay: Whole Human Genome Oligo Array gene expression; format: cell-based; design: CCNE1 down-regulated / CAMK1 down-regulated / TCF4 down-regulated / PPARGC1B down-regulated / RB1 down-regulated / TNF down-regulated / TYK2 down-regulated / STAT1 down-regulated / CAV3 down-regulated / EDARADD down-regulated / DAPK2 down-regulated / CASP8AP2 down-regulated / ITR down-regulated / RAC2 down-regulated / CDC2 down-regulated / CDC42 down-regulated / CCND3 down-regulated / PLAU down-regulated / EGR2 down-regulated / ADRB2 down-regulated / VASP down-regulated / FDPS down-regulated / IL11 down-regulated / AIF1 down-regulated / TGFB1 down-regulated / PIK3CB down-regulated / PTGS1 down-regulated / IRS1 down-regulated / TIMP2 down-regulated / PTGES2 down-regulated / PDGFRA down-regulated / TLR2 down-regulated / E2F2 down-regulated / RACGAP1 down-regulated / LDLR down-regulated / NCOR2 down-regulated / NCR1 down-regulated / CARD9 down-regulated / SRF down-regulated / PDGFA down-regulated / FLJ23091 down-regulated / BCL2A1 down-regulated / TIMP1 down-regulated / PDGFC down-regulated / TIMP3 down-regulated / ARHGEF1 down-regulated / FN1 down-regulated / MMP19 down-regulated / JUNB down-regulated / PPARD down-regulated / MYLK down-regulated / TGFBI down-regulated / ILK down-regulated / MAPKAPK3 down-regulated / ROCK1 down-regulated / IGF1 down-regulated / VEGFB down-regulated / ECGF1 down-regulated / GADD45A up-regulated / CASP1 up-regulated / CASP4 up-regulated / CCNA1 up-regulated / JUN up-regulated / CASP3 up-regulated / GADD45B up-regulated / AATK up-regulated / AMID up-regulated / IL10RA up-regulated / GADD45G up-regulated / IRS2 up-regulated / HO-1, heme oxygenase-1 up-regulated: dose or concentration left out as unconfirmed; conditions: 24 hours
Experimental: The nitroalkenes of the present invention also display regulatory actions towards the expression of genes related to inflammatory responses, cell growth, cell differentiation, cell signaling, cell death (apoptosis) and metabolism. For example, nitrolinoleate regulates gene expression in human vascular endothelial cells and macrophages. Cells were stimulated with vehicle and linoleic acid (2.5 μM, the latter two treatments as controls) and LNO2O ([…]) for 24 hours. The total RNA was purified with a Qiagen Kit and analyzed with a Whole Human Genome Oligo Array (G4112A, 41K Genes, Agilent). […] In contrast, the native (precursor) fatty acid, linoleic acid, only regulates 14 genes, with an up-regulation of 5 genes and the down-regulation of 9 genes.

[2] = Hydrophobic stabilization and micellar partition of LNO2; format: physicochemical
Source text: The formation of •NO was followed by EPR (measuring cPTI formation) in the presence of different concentrations of octyl-β-glucopyranoside (OG) and octyl-thio-β-glucopyranoside (OTG). The rate of •NO release was constant and not influenced by these detergents until the critical micellar concentration (CMC) for each was achieved, after which •NO formation was inhibited as the volume of the hydrophobic environment increased (FIG. 24A). Similar results were obtained when measuring •NO formation via conversion of oxymyoglobin to metmyoglobin. Apparent •NO release rates remained constant until OG concentration reached ˜2.8 mg/ml (CMC=2.77 mg/ml (11)). […] The inhibition of the NO2 group loss at 268 nm was paralleled by inhibition of the formation of oxidation products at 320 nm, similarly paralleling the detergent-induced inhibition of •NO release observed by EPR and oxymyoglobin-based detection.
Thus, a plot of 1/v vs. α will yield a linear plot with slope divided by y-axis intercept equal to K−1.

[3] = LNO2O 2.5 mM, linoleic acid 2.5 μM

Substance: 10-nitro-9,12-octadecadienoic acid and 12-nitro-9,12-octadecadienoic acid [LNO2]
- AATK up-regulated [1]: 1.503
- AMID up-regulated [1]: 8.362
- CASP1 up-regulated [1]: 2.572
- CASP3 up-regulated [1]: 1.689
- CASP4 up-regulated [1]: 2.57
- CCNA1 up-regulated [1]: 2.558
- GADD45A up-regulated [1]: 2.823
- GADD45B up-regulated [1]: 1.674
- GADD45G up-regulated [1]: 3.155
- HO-1, heme oxygenase-1 up-regulated [1]: 4.086
- IL10RA up-regulated [1]: 3.173
- IRS2 up-regulated [1]: 3.243
- JUN up-regulated [1]: 2.454
- number of genes down-regulated [1, 3]: > 3000 genes
- number of genes regulated [1, 3]: > 5000 genes
- number of genes up-regulated [1, 3]: > 2300 genes
- ADRB2 down-regulated ([1]; p < 0.05): 2.04 fold
- AIF1 down-regulated ([1]; p < 0.05): 3.95 fold
- ARHGEF1 down-regulated ([1]; p < 0.05): 1.64 fold
- BCL2A1 down-regulated ([1]; p < 0.05): 3.50 fold
- CAMK1 down-regulated ([1]; p < 0.05): 2.24 fold
- CARD9 down-regulated ([1]; p < 0.05): 3.33 fold
- CASP8AP2 down-regulated ([1]; p < 0.05): 1.52 fold
- CAV3 down-regulated ([1]; p < 0.05): 1.76 fold
- CCND3 down-regulated ([1]; p < 0.05): 1.51 fold
- CCNE1 down-regulated ([1]; p < 0.05): 1.58 fold
- CDC2 down-regulated ([1]; p < 0.05): 2.75 fold
- CDC42 down-regulated ([1]; p < 0.05): 1.65 fold
- DAPK2 down-regulated ([1]; p < 0.05): 1.73 fold
- E2F2 down-regulated ([1]; p < 0.05): 3.70 fold
- ECGF1 down-regulated ([1]; p < 0.05): 1.73 fold
- EDARADD down-regulated ([1]; p < 0.05): 1.69 fold
- EGR2 down-regulated ([1]; p < 0.05): 2.65 fold
- FDPS down-regulated ([1]; p < 0.05): 2.46 fold
- FLJ23091 down-regulated ([1]; p < 0.05): 1.74 fold
- FN1 down-regulated ([1]; p < 0.05): 3.33 fold
- IGF1 down-regulated ([1]; p < 0.05): 1.54 fold
- IL11 down-regulated ([1]; p < 0.05): 2.02 fold
- ILK down-regulated ([1]; p < 0.05): 2.94 fold
- IRS1 down-regulated ([1]; p < 0.05): 2.40 fold
- ITR down-regulated ([1]; p < 0.05): 1.68 fold
- JUNB down-regulated ([1]; p < 0.05): 1.60 fold
- LDLR down-regulated ([1]; p < 0.05): 1.77 fold
- MAPKAPK3 down-regulated ([1]; p < 0.05): 2.18 fold
- MMP19 down-regulated ([1]; p < 0.05): 1.58 fold
- MYLK down-regulated ([1]; p < 0.05): 3.13 fold
- NCOR2 down-regulated ([1]; p < 0.05): 1.59 fold
- NCR1 down-regulated ([1]; p < 0.05): 2.30 fold
- PDGFA down-regulated ([1]; p < 0.05): 2.27 fold
- PDGFC down-regulated ([1]; p < 0.05): 1.72 fold
- PDGFRA down-regulated ([1]; p < 0.05): 2.36 fold
- PIK3CB down-regulated ([1]; p < 0.05): 1.93 fold
- PLAU down-regulated ([1]; p < 0.05): 7.58 fold
- PPARD down-regulated ([1]; p < 0.05): 3.12 fold
- PPARGC1B down-regulated ([1]; p < 0.05): 2.20 fold
- PTGES2 down-regulated ([1]; p < 0.05): 1.59 fold
- PTGS1 down-regulated ([1]; p < 0.05): 3.95 fold
- RAC2 down-regulated ([1]; p < 0.05): 2.47 fold
- RACGAP1 down-regulated ([1]; p < 0.05): 2.35 fold
- RB1 down-regulated ([1]; p < 0.05): 2.06 fold
- ROCK1 down-regulated ([1]; p < 0.05): 1.59 fold
- SRF down-regulated ([1]; p < 0.05): 1.56 fold
- STAT1 down-regulated ([1]; p < 0.05): 1.74 fold
- TCF4 down-regulated ([1]; p < 0.05): 2.63 fold
- TGFB1 down-regulated ([1]; p < 0.05): 2.46 fold
- TGFBI down-regulated ([1]; p < 0.05): 9.80 fold
- TIMP1 down-regulated ([1]; p < 0.05): 3.62 fold
- TIMP2 down-regulated ([1]; p < 0.05): 1.92 fold
- TIMP3 down-regulated ([1]; p < 0.05): 2.27 fold
- TLR2 down-regulated ([1]; p < 0.05): 1.89 fold
- TNF down-regulated ([1]; p < 0.05): 2.01 fold
- TYK2 down-regulated ([1]; p < 0.05): 2.00 fold
- VASP down-regulated ([1]; p < 0.05): 4.85 fold
- VEGFB down-regulated ([1]; p < 0.05): 1.51 fold
- partition coefficient K ([2]; FIG. 28 legend): ~1500
- stability in organic solvents ([2]; organic solvents such as n-octanol): stable
